Results on eight compounds are retold here after patent US9340590B2 (priority 2011, dated 2016).

This assay has as its target hNav1.7 (Homo sapiens, UniProt Q15858). Put plainly: cell-based. The assay is classed as cell-based. The conditions noted are these: read-out: IWQ Use Nav1.7.

pIC50: −log10 of the molar value. Read-outs that look alike come from different tables or passages of the source. Positions of bridges follow the written chain, without caps; N, C: chain ends. Residues, ends and D or L forms follow the SMILES beside them.

Sequence of hNav1.7 (Q15858 whole entry, looked up): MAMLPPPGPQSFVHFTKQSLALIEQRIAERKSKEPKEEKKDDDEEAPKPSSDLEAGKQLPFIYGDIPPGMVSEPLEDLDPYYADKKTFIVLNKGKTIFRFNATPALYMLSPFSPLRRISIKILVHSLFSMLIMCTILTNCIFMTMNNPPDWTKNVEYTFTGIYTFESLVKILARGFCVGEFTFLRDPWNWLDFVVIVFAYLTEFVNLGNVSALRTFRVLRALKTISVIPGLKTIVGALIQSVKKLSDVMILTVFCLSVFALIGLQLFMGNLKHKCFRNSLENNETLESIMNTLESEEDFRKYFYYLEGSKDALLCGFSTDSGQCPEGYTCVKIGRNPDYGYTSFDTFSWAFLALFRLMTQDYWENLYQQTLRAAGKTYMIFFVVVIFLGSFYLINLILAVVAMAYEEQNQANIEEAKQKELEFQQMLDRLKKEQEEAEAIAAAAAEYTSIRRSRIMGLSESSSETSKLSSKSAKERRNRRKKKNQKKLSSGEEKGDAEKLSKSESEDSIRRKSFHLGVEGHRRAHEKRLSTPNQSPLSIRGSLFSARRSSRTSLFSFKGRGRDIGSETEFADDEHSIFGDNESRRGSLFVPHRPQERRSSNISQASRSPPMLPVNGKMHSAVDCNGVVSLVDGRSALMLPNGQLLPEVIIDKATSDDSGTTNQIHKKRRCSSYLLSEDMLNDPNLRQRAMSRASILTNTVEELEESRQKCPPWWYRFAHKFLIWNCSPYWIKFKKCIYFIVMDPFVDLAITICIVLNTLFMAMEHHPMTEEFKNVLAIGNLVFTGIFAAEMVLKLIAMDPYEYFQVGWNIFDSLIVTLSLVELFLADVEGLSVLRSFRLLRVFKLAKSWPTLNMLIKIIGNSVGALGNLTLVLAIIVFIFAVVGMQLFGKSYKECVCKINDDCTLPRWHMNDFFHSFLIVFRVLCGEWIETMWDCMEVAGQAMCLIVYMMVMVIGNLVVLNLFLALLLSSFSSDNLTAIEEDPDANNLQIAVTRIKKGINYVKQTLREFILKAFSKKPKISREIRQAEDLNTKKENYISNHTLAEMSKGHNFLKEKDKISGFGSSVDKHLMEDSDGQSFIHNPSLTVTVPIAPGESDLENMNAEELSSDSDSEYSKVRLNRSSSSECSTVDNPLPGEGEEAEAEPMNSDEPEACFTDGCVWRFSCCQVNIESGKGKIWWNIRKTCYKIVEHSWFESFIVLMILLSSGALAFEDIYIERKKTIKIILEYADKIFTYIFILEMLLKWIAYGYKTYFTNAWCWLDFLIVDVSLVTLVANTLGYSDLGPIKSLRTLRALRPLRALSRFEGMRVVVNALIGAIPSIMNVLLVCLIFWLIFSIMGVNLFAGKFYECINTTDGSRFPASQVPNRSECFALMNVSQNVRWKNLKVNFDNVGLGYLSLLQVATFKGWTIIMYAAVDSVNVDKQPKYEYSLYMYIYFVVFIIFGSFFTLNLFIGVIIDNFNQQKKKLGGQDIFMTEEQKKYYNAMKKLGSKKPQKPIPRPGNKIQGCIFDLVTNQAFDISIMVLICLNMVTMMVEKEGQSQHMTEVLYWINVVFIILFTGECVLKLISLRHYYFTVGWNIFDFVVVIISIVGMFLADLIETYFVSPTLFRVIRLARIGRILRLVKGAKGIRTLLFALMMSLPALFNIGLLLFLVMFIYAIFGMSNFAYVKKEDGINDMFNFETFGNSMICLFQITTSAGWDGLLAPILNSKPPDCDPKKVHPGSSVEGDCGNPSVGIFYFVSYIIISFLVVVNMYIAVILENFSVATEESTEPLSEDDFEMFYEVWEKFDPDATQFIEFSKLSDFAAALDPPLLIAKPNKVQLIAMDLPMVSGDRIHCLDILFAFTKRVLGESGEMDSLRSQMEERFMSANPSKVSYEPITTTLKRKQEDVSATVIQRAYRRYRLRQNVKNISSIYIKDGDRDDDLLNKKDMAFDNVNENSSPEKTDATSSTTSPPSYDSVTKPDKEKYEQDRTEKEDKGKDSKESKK

On to `CC[C@H](C)[C@@H]1NC(=O)[C@@H]2CSSC[C@@H]3NC(=O)[C@H](C(C)C)NC(=O)[C@H](CC(C)C)NC(=O)[C@H](CC(N)=O)NC(=O)[C@@H]4CCCN4C(=O)[C@H](CCCNC(=N)N)NC(=O)[C@H](CSSC[C@H](NC(=O)[C@@H](N)CC(=O)O)C(=O)N[C@@H](CC(C)C)C(=O)NCC(=O)N[C@@H](Cc4ccccc4)C(=O)N[C@@H](CCSC)C(=O)N[C@@H](CCCNC(=N)N)C(=O)N[C@@H](CCCCN)C(=O)N2)NC(=O)[C@H](CSSC[C@@H](C(=O)N[C@@H](CCCCN)C(=O)N[C@@H](Cc2ccc(O)cc2)C(=O)N[C@H](C(=O)N[C@@H](Cc2ccccc2)C(N)=O)C(C)C)NC(=O)[C@H](Cc2c[nH]c4ccccc24)NC(=O)[C@H](CCCCN)NC(=O)[C@H](Cc2c[nH]cn2)NC(=O)[C@H]([C@@H](C)O)NC(=O)[C@H](CCCNC(=N)N)NC(=O)[C@H](CO)NC3=O)NC(=O)[C@H](CCCCN)NC(=O)[C@H](CC(=O)O)NC(=O)[C@H](CC(N)=O)NC(=O)[C@H](CCCNC(=N)N)NC(=O)[C@@H]2CCCN2C1=O` [compound 67] (H-DCLGFMRKCIPRNDKCCRPNLVCSRTHKWCKYVF-NH2; disulfide 2-17, 9-23, 16-30), for which the pIC50 is 6.96.

Consider `CC[C@H](C)[C@@H]1NC(=O)[C@@H]2CSSC[C@@H]3NC(=O)[C@H](C(C)C)NC(=O)[C@H](CC(C)C)NC(=O)[C@H](CCCNC(=N)N)NC(=O)[C@@H]4CCCN4C(=O)[C@H](CCCNC(=N)N)NC(=O)[C@H](CSSC[C@H](NC(=O)[C@@H](N)CC(=O)O)C(=O)N[C@@H](CC(C)C)C(=O)NCC(=O)N[C@@H](Cc4ccccc4)C(=O)N[C@@H](CCSC)C(=O)N[C@@H](CCCNC(=N)N)C(=O)N[C@@H](CCCCN)C(=O)N2)NC(=O)[C@H](CSSC[C@@H](C(=O)N[C@@H](CCCCN)C(=O)N[C@@H](Cc2ccc(O)cc2)C(=O)N[C@H](C(=O)N[C@@H](Cc2ccccc2)C(N)=O)C(C)C)NC(=O)[C@H](Cc2c[nH]c4ccccc24)NC(=O)[C@H](CCCCN)NC(=O)[C@H](Cc2c[nH]cn2)NC(=O)[C@H]([C@@H](C)O)NC(=O)[C@H](CCCNC(=N)N)NC(=O)[C@H](CO)NC3=O)NC(=O)[C@H](CCCCN)NC(=O)[C@H](CC(=O)O)NC(=O)[C@H](CC(N)=O)NC(=O)[C@H](CC(=O)O)NC(=O)[C@@H]2CCCN2C1=O` [compound 69] (H-DCLGFMRKCIPDNDKCCRPRLVCSRTHKWCKYVF-NH2; disulfide 2-17, 9-23, 16-30), for which the pIC50 (IonWorks Quattro, Use) was 6.77.

`CC[C@H](C)[C@@H]1NC(=O)[C@@H]2CSSC[C@@H]3NC(=O)[C@H](C(C)C)NC(=O)[C@H](CC(C)C)NC(=O)[C@H](CC(N)=O)NC(=O)[C@@H]4CCCN4C(=O)[C@H](CCCNC(=N)N)NC(=O)[C@H](CSSC[C@H](NC(=O)[C@@H](N)CC(=O)O)C(=O)N[C@@H](CC(C)C)C(=O)NCC(=O)N[C@@H](Cc4ccccc4)C(=O)N[C@@H](CCSC)C(=O)N[C@@H](CCCNC(=N)N)C(=O)N[C@@H](CCCCN)C(=O)N2)NC(=O)[C@H](CSSC[C@@H](C(=O)N[C@@H](CCCCN)C(=O)N[C@@H](Cc2ccc(O)cc2)C(=O)N[C@@H](CCCNC(=N)N)C(=O)N[C@@H](Cc2ccccc2)C(N)=O)NC(=O)[C@H](Cc2c[nH]c4ccccc24)NC(=O)[C@H](CCCCN)NC(=O)[C@H](Cc2c[nH]cn2)NC(=O)[C@H]([C@@H](C)O)NC(=O)[C@H](CCCNC(=N)N)NC(=O)[C@H](CO)NC3=O)NC(=O)[C@H](CCCCN)NC(=O)[C@H](CC(=O)O)NC(=O)[C@H](CC(N)=O)NC(=O)[C@H](CC(=O)O)NC(=O)[C@@H]2CCCN2C1=O` [compound 74] (H-DCLGFMRKCIPDNDKCCRPNLVCSRTHKWCKYRF-NH2; disulfide 2-17, 9-23, 16-30): the pIC50 (Table 26, IonWorks Quattro, use, […]) is 7.10.

With `CC[C@H](C)[C@@H]1NC(=O)[C@@H]2CSSC[C@@H]3NC(=O)[C@H](CCC(=O)O)NC(=O)[C@H](CC(C)C)NC(=O)[C@H](CC(N)=O)NC(=O)[C@@H]4CCCN4C(=O)[C@H](CCCNC(=N)N)NC(=O)[C@H](CSSC[C@H](NC(=O)[C@@H](N)CC(=O)O)C(=O)N[C@@H](CC(C)C)C(=O)NCC(=O)N[C@@H](Cc4ccccc4)C(=O)N[C@@H](CCSC)C(=O)N[C@@H](CCCNC(=N)N)C(=O)N[C@@H](CCCCN)C(=O)N2)NC(=O)[C@H](CSSC[C@@H](C(=O)N[C@@H](CCCCN)C(=O)N[C@@H](Cc2ccc(O)cc2)C(=O)N[C@H](C(=O)N[C@@H](Cc2ccccc2)C(N)=O)C(C)C)NC(=O)[C@H](Cc2c[nH]c4ccccc24)NC(=O)[C@H](CCCCN)NC(=O)[C@H](Cc2c[nH]cn2)NC(=O)[C@H]([C@@H](C)O)NC(=O)[C@H](CCCNC(=N)N)NC(=O)[C@H](CO)NC3=O)NC(=O)[C@H](CCCCN)NC(=O)[C@H](CC(=O)O)NC(=O)[C@H](CC(N)=O)NC(=O)[C@H](CC(=O)O)NC(=O)[C@@H]2CCCN2C1=O` [compound 102] (H-DCLGFMRKCIPDNDKCCRPNLECSRTHKWCKYVF-NH2; disulfide 2-17, 9-23, 16-30), the pIC50 (IonWorks Quattro, Use) was 5.85.

Regarding `CC[C@H](C)[C@@H]1NC(=O)[C@@H]2CSSC[C@@H]3NC(=O)[C@H](C(C)C)NC(=O)[C@H](CC(C)C)NC(=O)[C@H](CC(N)=O)NC(=O)[C@@H]4CCCN4C(=O)[C@H](CCCNC(=N)N)NC(=O)[C@H](CSSC[C@H](NC(=O)[C@@H](N)CC(=O)O)C(=O)N[C@@H](CC(C)C)C(=O)NCC(=O)N[C@@H](Cc4ccccc4)C(=O)N[C@@H](CCSC)C(=O)N[C@@H](CCCNC(=N)N)C(=O)N[C@@H](CCCCN)C(=O)N2)NC(=O)[C@H](CSSC[C@@H](C(=O)N[C@@H](CCCCN)C(=O)N[C@@H](Cc2ccc(O)cc2)C(=O)N[C@H](C(=O)N[C@@H](Cc2ccccc2)C(N)=O)C(C)C)NC(=O)[C@H](Cc2c[nH]c4ccccc24)NC(=O)[C@H](CCCCN)NC(=O)[C@H](Cc2c[nH]cn2)NC(=O)[C@H]([C@@H](C)O)NC(=O)[C@H](CCCNC(=N)N)NC(=O)[C@H](C)NC3=O)NC(=O)[C@H](CCCCN)NC(=O)[C@H](CC(=O)O)NC(=O)[C@H](CC(N)=O)NC(=O)[C@H](CC(=O)O)NC(=O)[C@@H]2CCCN2C1=O` [compound 142] (H-DCLGFMRKCIPDNDKCCRPNLVCARTHKWCKYVF-NH2; disulfide 2-17, 9-23, 16-30), for the setting “IonWorks Quattro, Use”, the pIC50 is 6.33.

Take `CC[C@H](C)[C@@H]1NC(=O)[C@@H]2CSSC[C@@H]3NC(=O)[C@H](C(C)C)NC(=O)[C@H](CC(C)C)NC(=O)[C@H](CC(N)=O)NC(=O)[C@@H]4CCCN4C(=O)[C@H](CCC(=O)O)NC(=O)[C@H](CSSC[C@H](NC(=O)[C@@H](N)CC(=O)O)C(=O)N[C@@H](CC(C)C)C(=O)NCC(=O)N[C@@H](Cc4ccccc4)C(=O)N[C@@H](CCSC)C(=O)N[C@@H](CCCNC(=N)N)C(=O)N[C@@H](CCCCN)C(=O)N2)NC(=O)[C@H](CSSC[C@@H](C(=O)N[C@@H](CCCCN)C(=O)N[C@@H](Cc2ccc(O)cc2)C(=O)N[C@H](C(=O)N[C@@H](Cc2ccccc2)C(N)=O)C(C)C)NC(=O)[C@H](Cc2c[nH]c4ccccc24)NC(=O)[C@H](CCCCN)NC(=O)[C@H](Cc2c[nH]cn2)NC(=O)[C@H]([C@@H](C)O)NC(=O)[C@H](CCCNC(=N)N)NC(=O)[C@H](CO)NC3=O)NC(=O)[C@H](CCCCN)NC(=O)[C@H](CC(=O)O)NC(=O)[C@H](CC(N)=O)NC(=O)[C@H](CC(=O)O)NC(=O)[C@@H]2CCCN2C1=O` [compound 148] (H-DCLGFMRKCIPDNDKCCEPNLVCSRTHKWCKYVF-NH2; disulfide 2-17, 9-23, 16-30): the pIC50 is 6.66.

As for `CC[C@H](C)[C@@H]1NC(=O)[C@@H]2CSSC[C@@H]3NC(=O)[C@H](C(C)C)NC(=O)[C@H](CC(C)C)NC(=O)[C@H](CC(N)=O)NC(=O)[C@H](CCCNC(=N)N)NC(=O)[C@H](CCCNC(=N)N)NC(=O)[C@H](CSSC[C@H](NC(=O)[C@@H](N)CC(=O)O)C(=O)N[C@@H](CC(C)C)C(=O)NCC(=O)N[C@@H](Cc4ccccc4)C(=O)N[C@@H](CCSC)C(=O)N[C@@H](CCCNC(=N)N)C(=O)N[C@@H](CCCCN)C(=O)N2)NC(=O)[C@H](CSSC[C@@H](C(=O)N[C@@H](CCCCN)C(=O)N[C@@H](Cc2ccc(O)cc2)C(=O)N[C@H](C(=O)N[C@@H](Cc2ccccc2)C(N)=O)C(C)C)NC(=O)[C@H](Cc2c[nH]c4ccccc24)NC(=O)[C@H](CCCCN)NC(=O)[C@H](Cc2c[nH]cn2)NC(=O)[C@H]([C@@H](C)O)NC(=O)[C@H](CCCNC(=N)N)NC(=O)[C@H](CO)NC3=O)NC(=O)[C@H](CCCCN)NC(=O)[C@H](CC(=O)O)NC(=O)[C@H](CC(N)=O)NC(=O)[C@H](CC(=O)O)NC(=O)[C@@H]2CCCN2C1=O` [compound 157] (H-DCLGFMRKCIPDNDKCCRRNLVCSRTHKWCKYVF-NH2; disulfide 2-17, 9-23, 16-30), where the note is “IonWorks Quattro, Use”, the pIC50 was 7.15.

As for `CC[C@H](C)[C@@H]1NC(=O)[C@@H]2CSSC[C@@H]3NC(=O)[C@H](CCCNC(=N)N)NC(=O)[C@H](CC(C)C)NC(=O)[C@H](CC(N)=O)NC(=O)[C@@H]4CCCN4C(=O)[C@H](CCCNC(=N)N)NC(=O)[C@H](CSSC[C@H](NC(=O)[C@@H](N)CC(=O)O)C(=O)N[C@@H](CC(C)C)C(=O)NCC(=O)N[C@@H](Cc4ccccc4)C(=O)N[C@@H](CCSC)C(=O)N[C@@H](CCCNC(=N)N)C(=O)N[C@@H](CCCCN)C(=O)N2)NC(=O)[C@H](CSSC[C@@H](C(=O)N[C@@H](CCCCN)C(=O)N[C@@H](Cc2ccc(O)cc2)C(=O)N[C@H](C(=O)N[C@@H](Cc2ccccc2)C(N)=O)C(C)C)NC(=O)[C@H](Cc2c[nH]c4ccccc24)NC(=O)[C@H](CCCCN)NC(=O)[C@H](Cc2c[nH]cn2)NC(=O)[C@H]([C@@H](C)O)NC(=O)[C@H](CCCNC(=N)N)NC(=O)[C@H](CO)NC3=O)NC(=O)[C@H](CCCCN)NC(=O)[C@H](CC(=O)O)NC(=O)[C@H](CC(N)=O)NC(=O)[C@H](CC(=O)O)NC(=O)[C@@H]2CCCN2C1=O` [compound 158] (H-DCLGFMRKCIPDNDKCCRPNLRCSRTHKWCKYVF-NH2; disulfide 2-17, 9-23, 16-30), the pIC50 (IonWorks Quattro, Use) is 7.22.
